From US20010036460A1, “Targeted death cancer cells” (priority 2000, published 2001)

What was measured:
[1] = system: PC-3 xenografts; assay: In vivo test of gene therapy system: PC-3 xenograft tumor volume after 4-OHT; set-up: species or system male BALB/c nu/nu athymic mice
Procedure: To further test the efficacy of the regulated recombination system for targeting DT-A to bcl-2 expressing cells, xenografts are generated in male BALB/c nu/nu athymic mice by the subcutaneous injection of PC-3 cells (38,40,42). To generate tumors, […] are mixed with Matrigel basement membrane matrix and injected subcutaneously into the flank of a mouse (38). When tumors reach a volume of about 50 mm^3, a mixture of bcl2/FLP-ERt and RSV/FRT2puroDT-A containing virus is injected directly into the tumor site. A 1:1 ratio of the two viruses is maintained, while the total number of plaque forming units varies (10^9, 5×10^9, and 10^10). Twenty-four hours after injection of the virus, 4-OHT is administered to the host mice either by a single injection directly into the tumor (100 μl of a 3 μM solution in PBS) or by intraperitoneal injection on five consecutive days (1 mg in 100 μl sunflower seed oil). At one, two, and three weeks following the administration of 4-OHT, mice are euthanized, tumors are excised, and their volume and wet weight determined. Tumor volume is calculated by multiplying caliper measurements of length, width, and depth and then multiplying by 0.5236 (23). […] Tumors are fixed and processed for histopathological examination. Other control groups in this study are xenografts infected only with the RSV/FRT2puroDT-A virus and xenografts injected only with PBS.

[2] = system: PC-3 cells co-infected with the bcl2/FLP-ERt and RSV/FRT2puroDT-A containing adenoviruses; assay: In vitro test of gene therapy system: viable and clonogenic cell number after 4-OHT; type: cell-based, human; conditions: co-infected PC-3 cells, 4-OHT-treated versus non-treated cultures; 1, 2, 3 μM, 48 hours
Procedure: PC-3 cells are co-infected with the bcl2/FLP-ERt and RSV/FRT2puroDT-A containing adenoviruses. Cell death resulting from administration of the synthetic ligand 4-hydroxytamoxifen (4-OHT) is tested in cultured cells. Adenoviral infection is carried out by the addition of viral solutions of varying ratios of the two viruses and at varying degrees of multiplicity of infection to cell monolayers. After three hours of exposure to virus, the medium is changed and cells are incubated in fresh medium containing 4-OHT. Three concentrations of 4-OHT are tested: 1, 2, and 3 μM. After 48 hours incubation with 4-OHT, the number of viable cells are determined using the Trypan blue exclusion assay and the MTT assay (8). Since DT-A kills irreversibly by both apoptosis, as well as nonapoptotic pathways (39), the number of apoptotic cells is also determined. In addition, the growth potential of cells following treatment with tamoxifen is determined using a clonogenic assay (8).
In infected cells, the binding of 4-OHT to the FLP-ERt fusion protein will activate FLP. This in turn will result in recombinational excision of the FRT-puropA-FRT sequence, expression of the DT-A subunit, and cell death. […] Control infections are done with the RSV/FRT2puroDT-A virus alone and with the RSV/puro virus. […]

[3] = system: LNCaP cells stably transfected with the plasmid p22EDT1; assay: Trypan blue exclusion cell viability assay after 48 hours culture with 4-OHT (FIG. 3); type: cell-based, human; conditions: 4-OHT of varying concentrations
Procedure: FIG. 3. […] Parental LNCAP cells (blue) and LNCaP cells stably transfected with the plasmid p22EDT1 (red) were cultured in the presence of 4-OHT of varying concentrations for 48 hours after which the trypan blue exclusion assay was used to assess cell viability. p22EDT1 contains an SV40 promoter driving an FLP-ERt gene sequence and a CMV promoter driving a DT-A sequence disrupted by an FRT-puro/pA-FRT cassette.

## 4-hydroxytamoxifen [4-OHT]
[1]; control xenografts infected only with the RSV/FRT2puroDT-A virus or injected only with PBS
  tumor size: no effect on tumor size
[1]; xenografts injected with 1:1 mixture of bcl2/FLP-ERt and RSV/FRT2puroDT-A virus, 4-OHT intratumoral or intraperitoneal, versus vehicle-treated control mice
  tumor volume: significantly less
[2]
  number of viable and clonogenic cells: significantly reduced
[3]
  cell viability (DTA expression and cell death): results in DTA expression and cell death
